# What was measured:
# [1] = tested on: Bacillus cereus ATCC 14579; details: cited from earlier work
# [2] = tested on: B. anthracis pathogenic strain (human isolate); assay: microbe, parasite or virus in culture; type: cell-based; details: Bacillus anthracis; 16 h at 37 °C; read-out: MIC B. anthracis Pathogenic
# [3] = tested on: B. cereus (ATCC 10876); assay: microbe, parasite or virus in culture; type: cell-based; details: Bacillus cereus, ATCC10876; 16 h at 37 °C; read-out: MIC B. cereus
# [4] = tested on: B. anthracis ovine strain (animal isolate); assay: microbe, parasite or virus in culture; type: cell-based; details: Bacillus anthracis; 16 h at 37 °C; read-out: MIC B. anthracis Ovine
# [5] = tested on: B. anthracis Sterne strain; assay: microbe, parasite or virus in culture; type: cell-based; details: Bacillus anthracis; 16 h at 37 °C; read-out: MIC B. anthracis Sterne
# [6] = tested on: E. faecalis (ATCC 29212); assay: microbe, parasite or virus in culture; type: cell-based; details: Enterococcus faecalis, ATCC29212; 16 h at 37 °C; read-out: MIC E. faecalis
# [7] = tested on: B. cereus ATCC 14579 strains resistant to known antibiotics; assay: microbe, parasite or virus in culture; type: cell-based, Bacillus cereus
# [8] = in vitro; details: human
# [9] = tested on: B. cereus ATCC 14579; assay: microbe, parasite or virus in culture; type: cell-based, Bacillus cereus; details: Bacillus cereus, ATCC14579
Structure (SMILES),MIC [1],MIC [2],MIC [3],MIC [4],MIC [5],MIC [6],MIC of the antibiotic [7],IC50 at 24 h [8],IC50 at 48 h [8],MBC [9],MIC [9]
CC1(C)S[C@@H]2[C@H](NC(=O)[C@H](N)c3ccccc3)C(=O)N2[C@H]1C(=O)O [Ampicillin],0.25 mg/L,–,–,–,–,–,–,–,–,–,–
"O=C(N[C@H](CO)[C@H](O)c1ccc([N+](=O)[O-])cc1)C(Cl)Cl [Chloramphenicol, reference compound]",2.5 mg/L,25 µM,19 µM,25 µM,25 µM,19 µM,–,–,–,–,–
O=C(O)c1cn(C2CC2)c2cc(N3CCNCC3)c(F)cc2c1=O [Ciprofloxacin],0.32 mg/L,–,–,–,–,–,50 mg/L,–,–,–,–
CCCCCCCCCCCCS[C@H]1C[C@H](O)[C@@H](O)[C@H](C)O1 [Compound 2],–,48 µM,48 µM,48 µM,24 µM,> 48 µM,–,> 50 µM,> 50 µM,–,–
CCCCCCCCCCCC[C@H]1C[C@H](O)[C@@H](O)[C@H](C)O1 [Compound 3],–,54 µM,27 µM,54 µM,27 µM,> 54 µM,–,> 100 µM,100 µM,–,–
CCCCCCCCCCCCO[C@H]1C[C@H](O)[C@H](O)[C@H](C)O1 [Compound 4],–,25 µM,25 µM,25 µM,25 µM,> 50 µM,–,100 µM,50 µM,–,–
CCCCCCCCCCCCO[C@@H]1C[C@H](O)[C@@H](O)[C@H](C)O1 [Compound 5],–,101 µM,202 µM,101 µM,202 µM,101 µM,–,–,–,–,–
CCCCCCCCCCCCO[C@@H]1O[C@@H](C)[C@H](O)[C@@H](O)[C@H]1O [Compound 6],–,24 µM,–,48 µM,24 µM,48 µM,–,–,–,32 mg/L,32 mg/L
CCCCCCCCCCCCO[C@H]1C[C@H](O)[C@@H](O)CO1 [Compound 7],–,52 µM,–,52 µM,26 µM,52 µM,–,> 100 µM,100 µM,16 mg/L,16 mg/L
CCCCCCCCCCCCO[C@@H]1C[C@H](O)[C@@H](O)CO1 [Compound 8],–,26 µM,–,52 µM,26 µM,52 µM,–,–,–,–,–
CCCCCCCCCCCCO[C@@H]1C[C@@H](O)[C@H](O)[C@@H](C)O1 [Compound 9],–,50 µM,25 µM,50 µM,50 µM,50 µM,–,100 µM,50 µM,–,–
"CCCCCCCCCCCC[C@@H]1C[C@@H](O)[C@H](O)[C@@H](C)O1 [Compound 10, 1-(2,6-Dideoxy-α-D-arabino-hexopyranosyl)dodecane]",–,27 µM,27 µM,27 µM,27 µM,> 54 µM,–,> 100 µM,> 100 µM,32 mg/L,32 mg/L
"CCCCCCCCCCCCO[C@H]1O[C@H](C)C[C@H](O)[C@H]1O [Compound 11, dodecyl 4,6-dideoxy-α-D-xylo-hexopyranoside]",–,12.6 µM,12.6 µM,12.6 µM,12.6 µM,12.6 µM,–,–,50 µM,–,–
CCCCCCCCCCCCO[C@@H]1O[C@H](C)C[C@H](O)[C@H]1O [Compound 12],–,> 405 µM,> 405 µM,> 405 µM,> 405 µM,> 405 µM,–,–,50 µM,–,–
CCCCCCCCCCCC[C@@H]1C[C@@H](O)[C@H](O)[C@@H](CO)O1 [Compound 14],–,51 µM,51 µM,51 µM,104 µM,51 µM,–,–,–,–,–

# Reference: PMC6242839 (Nature Communications, 2018)
